# Source: patent US11364282B2, “Compositions, uses and methods for treatment of infertility and subfertility” (LO.LI. PHARMA S.R.L., priority 2017, dated 2022)
# Tests used:
# clinical = settings: female, human, in vivo
# Protocol: (§1) Specifically, myoinositol plasma levels were tested in these non-responding patients; a mean value of 17±3.5 μmol/l myoinositol was observed. Successively, a treatment with 2 g myoinositol, 0.2 mg folic acid and 50 mg alpha lactalbumin was performed in doses of two powder sachets per day before meals during the next three months. Of the 7 myoinositol resistant patients after combined treatment with myoinositol and alpha lactalbumin, 5 of the original non-responders (i.e. 71% of the original non-responders) ovulated. […]
# [1] = system: anovulatory PCOS patients; experiment: Clinical evaluation on PCOS women: ovulation assessed by ultrasound examination; assay type: in vivo, human; settings: two sachets per day
# Source text: The present study aims to develop an efficacious therapy in women suffering from PCOS based on the improved absorption of inositol, e.g. myoinositol, when administered in combination with alpha lactalbumin. Specifically, while treatment of PCOS with myoinositol alone correlates to an improvement in the disease in a significant number of women, there remain women who still fail to respond to treatment with myoinositol alone. The present inventors thus sought to determine whether the higher level of myoinositol absorption observed when administering myoinositol together with alpha lactalbumin might allow successful treatment of PCOS patients who had previously not responded to treatment with myoinositol alone. If so, then the treatment of PCOS with inositol in combination with alpha lactalbumin, e.g. myoinositol in combination with alpha lactalbumin, would represent a significant therapeutic advance, allowing treatment of PCOS in previously recalcitrant cases, thereby substantially extending the therapeutic benefit of inositol, e.g. myoinositol, in treating PCOS.
# The present study included 20 anovulatory PCOS patients.
# Inclusion criteria were: age 20-35 years; PCOS according to Rotterdam ESHRE-ASRM consensus workshop group; anovulation and infertility >1 year. Indeed, according to Rotterdam criteria, PCOS was diagnosed performed if 2 out of the 3 following factors were fulfilled: a) oligo- or anovulation, b) clinical and/or biochemical signs of hyperandrogenism, and c) polycystic ovaries.
# Patients were excluded in the event of other conditions causing ovulatory dysfunction, such as hyperprolactinemia or hypothyroidism, or androgen excess, such as adrenal hyperplasia or Cushing's syndrome, and also in the case of intake of other drugs that can potentially influence ovulation.
# All the patients were given myoinositol (Inofolic®, Lo.Li. Pharma, Rome, Italy), containing 2 g myoinositol and 0.2 mg folic acid in dose of two sachets per day before meals, in order to induce ovulation.
# Ovulation was assessed using ultrasound examination on days 12, 14 and 20 of the cycle. Treatment was performed for three months.
# These 7 non-responders then became the subject of a second phase of the study, in which they received treatment with myoinositol in combination with alpha lactalbumin.
# as §1
# [2] = system: women affected by idiopathic infertility; experiment: Clinical evaluation on women affected by idiopathic infertility: biochemical pregnancy (beta hCG assay); assay type: in vivo, human; settings: first phase: 40 women; 2 g myoinositol + 0.2 mg folic acid (Inofolic), two sachets per day, 3 months
# Source text: The present study aims to develop an efficacious therapy in women suffering from idiopathic infertility based on the improved absorption of inositol, e.g. myoinositol, when administered in combination with alpha lactalbumin. Specifically, while treatment of idiopathic infertility with myoinositol alone correlates to an improvement in the disease in a significant number of women, there remain women who still fail to respond to treatment with myoinositol alone. The present inventors thus sought to determine whether the higher level of myoinositol absorption observed when administering myoinositol together with alpha lactalbumin might allow successful treatment of idiopathic infertility patients who had previously not responded to treatment with myoinositol alone. If so, then the treatment of idiopathic infertility with inositol in combination with alpha lactalbumin, e.g. myoinositol in combination with alpha lactalbumin, would represent a significant therapeutic advance, allowing treatment of idiopathic infertility in previously recalcitrant cases, thereby substantially extending the therapeutic benefit of inositol, e.g. myoinositol, in treating idiopathic infertility. The present study included 40 women affected by idiopathic infertility. Inclusion criteria were: women affected by idiopathic infertility as defined below, aged 30-40 years, who were not receiving any therapy with drugs which potentially influence ovulation. Patients were given a thorough evaluation and were tested for a number of diseases, as described in the following. Testing positive for any of these diseases tested sufficed to exclude a patient as being “idiopathically infertile”. Specifically, patients were excluded from this trial in the event they were diagnosed positive for any of: hyperprolactinemia, hypothyroidism, Cushing's syndrome, adrenal hyperplasia, obesity, polycystic ovary syndrome (PCOS) or anovulation. The person skilled in the art can routinely diagnose each of the above mentioned conditions. For example, hyperprolactinemia can be diagnosed when serum prolactin levels are found to be over 20 μg/L, as e.g. described in Serri et al., CMAJ, 2003, 169(6): 575-581. Hypothyroidism can be diagnosed when the serum TSH level is found to be over 4.5 mIU/L (Garber et al., CLINICAL PRACTICE GUIDELINES FOR HYPOTHYROIDISM IN ADULTS: COSPONSORED BY THE AMERICAN ASSOCIATION OF CLINICAL ENDOCRINOLOGISTS AND THE AMERICAN THYROID ASSOCIATION; Endocrine Practice vol. 18 No. 6, 2012). Cushing's syndrome can be diagnosed according to Nieman et al., J. Clin. Endocrinol. […] The primary readout was the achievement of biochemical pregnancy as assessed using an assay (HCG Combo Card, Shanghai Chemtron Biotech Co., Ltd., catalog.no. 6011C31-4) for beta human chorionic gonadotropin (beta hCG). […]
# anovulatory PCOS women = settings: 4 g/day myoinositol; cited from earlier work
# [3] = Pharmacokinetic evaluation in healthy subjects: myoinositol plus alpha lactalbumin (plasma myoinositol by GCMS); assay type: in vivo; settings: both sexes, human, single oral dose in powder, 6 g myoinositol alone or plus 150 mg alpha lactalbumin, 15 healthy volunteers, mean
# Source text: The present example describes a pharmacokinetic study combining the oral administration of myoinositol and alpha lactalbumin in healthy subjects. The study aims to determine whether the combination of myoinositol and alpha lactalbumin is able to increase the plasma level of myoinositol above that observed after administering myoinositol alone. The study involved 15 healthy volunteers, 6 men and 9 women. […] Subjects received orally 6 g of myoinositol in powder form and then, after a washout period of 7 days, 6 g of myoinositol and 150 mg alpha lactalbumin, also in powder form.
# [4] = first phase: 20 anovulatory PCOS patients, 2 g myoinositol + 0.2 mg folic acid (Inofolic), three months
structure (smiles),measurement,setting,value
O[C@H]1[C@H](O)[C@@H](O)[C@H](O)[C@@H](O)[C@H]1O [myoinositol],concentration at 3 months,clinical,17 ± 3.5 µM
same,myoinositol plasma level in patients who responded positively,clinical,38 µmol/L
same,MYOINOSITOL PLASMA LEVELS T3 mean (±SD),clinical; 3 months,17 (3.5) μmol/l
same,OVULATION T3 (number of patients),"[1]; 7 PCOS patients non-responsive to myoinositol, after 3 months of the treatment, combination: 2 g myoinositol, 0.2 mg folic acid, 50 mg alpha lactalbumin",0
same,"women resistant, did not ovulate (%)",[1]; [4],35%
same,"women resistant, did not ovulate (number of 20)",[1]; [4],7
same,women who ovulated (%),[1]; [4],65%
same,women who ovulated (number of 20),[1]; [4],13
same,Achieving biochemical pregnancy %,[2],52.5%
same,Achieving biochemical pregnancy (number),[2],21
same,Not achieving biochemical pregnancy %,[2],47.5%
same,Not achieving biochemical pregnancy (number),[2],19
same,non-responders (patients who did not ovulate after treatment),anovulatory PCOS women,38.3%
same,Cmax,[3],98 µM
same,Tmax,[3],3 h
